Reference: publication PMC6934184, “Selective DNA-PKcs inhibition extends the therapeutic index of localized radiotherapy and chemotherapy” (The Journal of Clinical Investigation, 2019)

Target: T1, LCK (Homo sapiens, UniProt P06239)
T1 construct: purchased Thermo Fisher Scientific (Life Technologies) SelectScreen
Test: SelectScreen Z'LYTE
Type: biochemical
In short: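 SelectScreen broad panel; activity (Z'LYTE, Adapta) plus binding formats. ATP: Km app for CSF1R Z'LYTE; 10 for CAMK1 Adapta. Readout = % per kinase.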

T1 sequence (P06239 whole entry): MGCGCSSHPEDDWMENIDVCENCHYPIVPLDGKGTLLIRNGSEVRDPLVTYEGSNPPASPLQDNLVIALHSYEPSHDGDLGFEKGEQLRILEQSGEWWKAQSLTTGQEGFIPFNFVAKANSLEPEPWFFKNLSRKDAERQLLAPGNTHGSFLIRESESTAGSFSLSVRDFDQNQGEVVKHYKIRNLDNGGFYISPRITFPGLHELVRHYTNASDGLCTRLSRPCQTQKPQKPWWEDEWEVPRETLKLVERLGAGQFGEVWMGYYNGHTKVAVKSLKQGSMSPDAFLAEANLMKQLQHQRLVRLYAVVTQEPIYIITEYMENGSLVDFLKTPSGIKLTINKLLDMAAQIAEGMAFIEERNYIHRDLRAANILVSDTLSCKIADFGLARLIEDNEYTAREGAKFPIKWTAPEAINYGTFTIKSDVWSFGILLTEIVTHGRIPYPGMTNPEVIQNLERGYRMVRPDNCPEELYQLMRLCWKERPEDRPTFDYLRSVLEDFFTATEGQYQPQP

CN(C(=O)CN1CCOCC1)c1ccc2sc3c(-c4cccc5c(=O)cc(N6CC7CCC(C6)O7)oc45)cccc3c2c1 [NU5455]
inhibition at 1 µM: 9.6%
